These results are taken from a melting point compilation (Tetko et al.; mined from patent text by program, amines drawn as free bases though some values may be those of a salt).

SMILES strings stand for the structures.

In the case of `CCCCCC(=O)OCCCOc1ccc(Nc2ccccc2)cc1`, the melting point is 50 to 51 °C.
`Cc1cc2c(cc1-c1cc(C=CC(=O)O)n(C)c1)C(C)(C)CCC2(C)C`: the melting point lay within 185 to 186 °C.
On to `CC12CCC(=O)C=C1CCC1C2CCC2(C)C1CCC2(O)C(N)=O` (configuration not stated), for which the melting point lay in the range of 233 to 234 °C.
For `CC(=O)OC1=CC(C)C2(C)C(=C1)CCC1C3CCC(=O)C3(C)CCC12` (configuration not stated), the melting point lay within 104 to 107 °C.
The compound `Cc1cccc2c(=O)n(C3CCC(=O)NC3=O)cnc12` (configuration not stated) yielded a melting point of 290 to 292 °C.
To `CCc1ccc(SC2CCOC2=O)c(C(=O)O)c1` (configuration not stated) belongs 167 to 170 °C.
With `CCCCn1c(=O)n(CCC)c(=O)c2[nH]c(C)nc21` the figure was 174 to 175 °C; with `CN(C)S(=O)(=O)c1cc2cc(C(=O)O)oc2c(Cl)c1Cl`, 242 to 245 °C; with `COC(=O)c1cc(C(=O)O)nc2cc(Cl)cc(Cl)c12`, 169 to 171 °C.
In turn, `O=C(O)c1ccc(Cl)cc1Sc1ccc(F)cc1` registered a melting point of 204 to 213 °C.
With `COc1cc(O)ccc1CCCc1ccc(O)c(CC=C(C)C)c1` the figure was 85 to 86 °C; with `O=Cc1ccc(Cl)cc1O`, 47 to 48 °C.
In turn, `CCOC(=O)Nc1cc(OC(=O)OC)c(Cl)cc1F` returned a melting point of 144 to 147 °C.
`NC(=O)c1cc2ccccc2[nH]1` returned a melting point of 231 to 232 °C.
With `N#CNC(=Nc1ccncc1)NCCCCOc1ccccc1` the figure was 131 °C.
On to `Cc1nc2ccccc2n1CCOCCCl`, for which the melting point was in the range of 96 to 98 °C.
Compound `COc1cccc(Cc2ccc(-c3cnn4c(O)ccnc34)cc2)c1` returned a melting point of 246 to 249 °C.
For the compound `O=C1c2c(Cl)cccc2-n2cnc(-c3nnco3)c2[C@@H]2CCN12`, the melting point was 264 to 265 °C.
Take `CC(c1cc2ccccc2o1)N(O)C(N)=O` (configuration not stated): the melting point fell in the range of 147 to 150 °C.
Compound `NC(=O)CN1CCC(c2nn(-c3ccc(C(F)(F)F)cc3)c3cc(F)ccc23)CC1` registered a melting point of 174 to 176 °C.
To `C=CCNc1nc(N)nc2c1ncn2C1CC(F)C(CO)O1` (configuration not stated) belongs 128 to 129 °C.
`COc1cc(C)c(C(=O)c2c(OC)ccc(C(F)(F)F)c2C)c(OC)c1OC`: the melting point was in the range of 95 to 96 °C.
Consider `CCCC(CCC)c1nc(-c2ccncc2)c(-c2ccc(Cl)cc2)n1CC`, for which the melting point was 152 to 155 °C.
To `CC1(C)CC(=O)C2=C(C1)NC1=C(C(=O)CC(C)(C)C1)C2c1ccc(Cl)c(OCc2ccccc2)c1` belongs 243 to 244 °C; to `CS(=O)(=O)c1ccc(-c2nc3cc(C4=CCN(S(=O)(=O)CCCO)CC4)ccc3o2)c(F)c1`, 184 to 186 °C.
As for `CN(C)C(=N[N+](=O)[O-])N(C)Cc1ccc(Cl)nc1`, the melting point lay within 99 to 101 °C.
As for `COc1ccc(-c2ccc(S(=O)(=O)NCc3ccccn3)nc2)cc1`, the melting point amounted to 150 °C.
In the case of `O=C1Cc2c(cc3ccccc3c2Br)C(c2ccccc2Cl)N1` (configuration not stated), the melting point fell in the range of 256 to 257 °C.
Take `CC12CCC(C1)C1(C)Oc3ccc(C(O)c4ccc(CO)cc4)cc3C21C` (configuration not stated): the melting point lay within 113 to 115 °C.
The compound `Cc1ccc(C(=O)Nc2cn(C3CCCCO3)nc2C(=O)NCCO)cn1` (configuration not stated) returned a melting point of 140 °C.
To `N#CCc1cccc2c1CCN=C2c1ccc([N+](=O)[O-])cc1` belongs 138 to 139 °C.
As for `Cn1c(-c2ccccc2)c2ccsc2nc1=O`, the melting point lay within 175 to 181 °C.
Regarding `COc1ccc2cc([C@H](C)C(=O)OCC3(CO[N+](=O)[O-])COCOC3)ccc2c1`, the melting point stood at 98 °C.
In turn, `O=C(CCc1ccccc1)Nc1ccc(Br)cc1` showed a melting point of 149 to 151 °C.
To `O=c1[nH]c2ccccc2n1CCCN1CCC(c2noc3cc(F)ccc23)CC1` belongs 175 to 177 °C; to `Nc1cc2c(Nc3ccc(Br)c(Cl)c3)ncnc2cn1`, 272 to 275 °C.
As for `O=S1(=O)c2sccc2C=C(CO)N1CCN1CCOCC1`, the melting point was in the range of 119 to 121 °C.
